Assays:
Experiment in all cases: Nitroreductase detection on Columbia agar, colonies read under UV
Details in all cases: Table 4; 100 mg/l in Columbia agar, 24 h 37° C., UV 360-365 nm
[1] = test system: Candida glabrata NCPF 3943; type: cell-based; design: key to Intensity of fluorescence, Candida glabrata NCPF3943 / F: fluorescence (intensity), Candida glabrata NCPF 3943 / Intensity of the fluorescence, Candida glabrata NCPF 3943: − = no fluorescence detected; +/− = weak fluorescence; + = medium fluorescence; ++ = strong fluorescence
Protocol: (§1) A mass of 40 mg of each substrate was dissolved in 4 ml of dimethylformamide (DMF). This solution was entirely taken up in 400 ml of Columbia agar autoclaved beforehand and kept molten at 50° C. The final concentration for each substrate was 100 mg/l.
(§2) Each of the media was distributed into Petri dishes 90 mm in diameter, in a proportion of 20 ml per dish.
(§3) 18 microorganism strains derived from collections and belonging to various species of bacteria and of yeasts were inoculated onto these media by semi-quantitative isolation of 10 μl of a suspension at 0.5 McFarland diluted to 1/20. The media were incubated for 24 hours at 37° C., then the colonies formed were examined visually under UV illumination at 360-365 nm.

[2] = test system: Acinetobacter baumanii ATCC 19606; type: cell-based; design: key to Intensity of fluorescence, Acinetobacter baumanii ATCC 19606 / Intensity of the fluorescence, Acinetobacter baumanii ATCC 19606: − = no fluorescence detected; +/− = weak fluorescence; + = medium fluorescence; ++ = strong fluorescence
Protocol: as §1, §2, §3

[3] = test system: Morganella morganii 462403 (wild); type: cell-based; design: key to Intensity of fluorescence, Morganella morganii 462403 / F: fluorescence (intensity), Morganella morganii 462403 (wild) / Intensity of the fluorescence, Morganella morganii 462403 (wild): − = no fluorescence detected; +/− = weak fluorescence; + = medium fluorescence; ++ = strong fluorescence
Protocol: as §1, §2, §3

[4] = test system: Salmonella typhimurium NCTC 74; type: cell-based; design: key to Intensity of fluorescence, Salmonella typhimurium NCTC 74 / F: fluorescence (intensity), Salmonella typhimurium NCTC 74 / Intensity of the fluorescence, Salmonella typhimurium NCTC 74: − = no fluorescence detected; +/− = weak fluorescence; + = medium fluorescence; ++ = strong fluorescence
Protocol: as §1, §2, §3

MRSA NCTC 11939 = type: cell-based, Staphylococcus aureus; design: key: − = no fluorescence detected; +/− = weak fluorescence; + = medium fluorescence; ++ = strong fluorescence
Protocol: as §1, §2, §3

[5] = test system: Enterococcus faecalis NCTC 775; type: cell-based; design: key: − = no fluorescence detected; +/− = weak fluorescence; + = medium fluorescence; ++ = strong fluorescence
Protocol: as §1, §2, §3

[6] = test system: Staphylococcus epidermidis NCTC 11047; type: cell-based; design: key: − = no fluorescence detected; +/− = weak fluorescence; + = medium fluorescence; ++ = strong fluorescence
Protocol: as §1, §2, §3

[7] = test system: Pseudomonas aeruginosa NCTC 10662; type: cell-based; design: key: − = no fluorescence detected; +/− = weak fluorescence; + = medium fluorescence; ++ = strong fluorescence
Protocol: as §1, §2, §3

[8] = test system: Candida albicans ATCC 90028; type: cell-based; design: key: − = no fluorescence detected; +/− = weak fluorescence; + = medium fluorescence; ++ = strong fluorescence
Protocol: as §1, §2, §3

[9] = test system: Serratia marcescens NCTC 10211; type: cell-based; design: key: − = no fluorescence detected; +/− = weak fluorescence; + = medium fluorescence; ++ = strong fluorescence
Protocol: as §1, §2, §3

[10] = test system: Providencia rettgeri NCTC 7475; type: cell-based; design: key: − = no fluorescence detected; +/− = weak fluorescence; + = medium fluorescence; ++ = strong fluorescence
Protocol: as §1, §2, §3

[11] = test system: Escherichia coli NCTC 10418; type: cell-based; design: key: − = no fluorescence detected; +/− = weak fluorescence; + = medium fluorescence; ++ = strong fluorescence
Protocol: as §1, §2, §3

[12] = test system: Listeria monocytogenes NCTC 11994; type: cell-based; design: key: − = no fluorescence detected; +/− = weak fluorescence; + = medium fluorescence; ++ = strong fluorescence
Protocol: as §1, §2, §3

[13] = test system: Streptococcus pyogenes NCTC 8306; type: cell-based; design: key: − = no fluorescence detected; +/− = weak fluorescence; + = medium fluorescence; ++ = strong fluorescence
Protocol: as §1, §2, §3

[14] = test system: Citrobacter freundii 46262 (wild); type: cell-based; design: key: − = no fluorescence detected; +/− = weak fluorescence; + = medium fluorescence; ++ = strong fluorescence
Protocol: as §1, §2, §3

[15] = test system: Enterococcus faecium NCTC 7171; type: cell-based; design: key: − = no fluorescence detected; +/− = weak fluorescence; + = medium fluorescence; ++ = strong fluorescence
Protocol: as §1, §2, §3

[16] = test system: Enterobacter cloacae NCTC 11936; type: cell-based; design: key: − = no fluorescence detected; +/− = weak fluorescence; + = medium fluorescence; ++ = strong fluorescence
Protocol: as §1, §2, §3

[17] = test system: Yersinia enterocolitica NCTC 11176; type: cell-based; design: key: − = no fluorescence detected; +/− = weak fluorescence; + = medium fluorescence; ++ = strong fluorescence
Protocol: as §1, §2, §3

[18] = test system: Bacillus subtilis NCTC 9372; type: cell-based; design: key: − = no fluorescence detected; +/− = weak fluorescence; + = medium fluorescence; ++ = strong fluorescence
Protocol: as §1, §2, §3

[19] = test system: Staphylococcus aureus NCTC 6571; type: cell-based; design: key: − = no fluorescence detected; +/− = weak fluorescence; + = medium fluorescence; ++ = strong fluorescence
Protocol: as §1, §2, §3

CN1CCN(c2ccc([N+](=O)[O-])c(-c3nc4ccccc4s3)c2)CC1 [Substrate 23]
Intensity of the fluorescence, Candida glabrata NCPF 3943 [1]: −
Intensity of the fluorescence, Acinetobacter baumanii ATCC 19606 [2]: −
Intensity of the fluorescence, Morganella morganii 462403 (wild) [3]: +
Intensity of the fluorescence, Salmonella typhimurium NCTC 74 [4]: +
Intensity of the fluorescence, MRSA NCTC 11939 (MRSA NCTC 11939): +/−
Intensity of the fluorescence, Enterococcus faecails NCTC 775 [5]: −
Intensity of the fluorescence, Staphylococcus epidermidis NCTC 11047 [6]: −
Intensity of the fluorescence, Pseudomonas aeruginosa NCTC 10662 [7]: +
Intensity of the fluorescence, Candida albicans ATCC 90028 [8]: −
Intensity of the fluorescence, Serratia marcescens NCTC 10211 [9]: +
Intensity of the fluorescence, Providencia rettgeri NCTC 7475 [10]: +
Intensity of the fluorescence, Escherichia coli NCTC 10418 [11]: −
Intensity of the fluorescence, Listeria monocytogenes NCTC 11994 [12]: −
Intensity of the fluorescence, Streptococcus pyogenes NCTC 8306 [13]: −
Intensity of the fluorescence, Citrobacter freundii 46262 (wild) [14]: +
Intensity of the fluorescence, Enterococcus faecium NCTC 7171 [15]: −
Intensity of the fluorescence, Enterobacter cloacae NCTC 11936 [16]: +
Intensity of the fluorescence, Yersinia enterocolitica NCTC 11176 [17]: −
Intensity of the fluorescence, Bacillus subtilis NCTC 9372 [18]: −
Intensity of the fluorescence, Staphylococcus aureus NCTC 6571 [19]: V.

From patent publication US8211662B2, “Nitroreductase enzymatic substrates” (Biomerieux, priority 2007, dated 2012)
